pEC50: −log10 of the molar value.
Biological target: Hexokinase HKDC1 [W721R] (Homo sapiens, UniProt Q2TB90, W721R)
Assay: HKDC1 hexokinase activators, dose response, biochemical, W721R variant (AID 504730)

Chain of Hexokinase HKDC1 [W721R] (Q2TB90 whole entry W721R): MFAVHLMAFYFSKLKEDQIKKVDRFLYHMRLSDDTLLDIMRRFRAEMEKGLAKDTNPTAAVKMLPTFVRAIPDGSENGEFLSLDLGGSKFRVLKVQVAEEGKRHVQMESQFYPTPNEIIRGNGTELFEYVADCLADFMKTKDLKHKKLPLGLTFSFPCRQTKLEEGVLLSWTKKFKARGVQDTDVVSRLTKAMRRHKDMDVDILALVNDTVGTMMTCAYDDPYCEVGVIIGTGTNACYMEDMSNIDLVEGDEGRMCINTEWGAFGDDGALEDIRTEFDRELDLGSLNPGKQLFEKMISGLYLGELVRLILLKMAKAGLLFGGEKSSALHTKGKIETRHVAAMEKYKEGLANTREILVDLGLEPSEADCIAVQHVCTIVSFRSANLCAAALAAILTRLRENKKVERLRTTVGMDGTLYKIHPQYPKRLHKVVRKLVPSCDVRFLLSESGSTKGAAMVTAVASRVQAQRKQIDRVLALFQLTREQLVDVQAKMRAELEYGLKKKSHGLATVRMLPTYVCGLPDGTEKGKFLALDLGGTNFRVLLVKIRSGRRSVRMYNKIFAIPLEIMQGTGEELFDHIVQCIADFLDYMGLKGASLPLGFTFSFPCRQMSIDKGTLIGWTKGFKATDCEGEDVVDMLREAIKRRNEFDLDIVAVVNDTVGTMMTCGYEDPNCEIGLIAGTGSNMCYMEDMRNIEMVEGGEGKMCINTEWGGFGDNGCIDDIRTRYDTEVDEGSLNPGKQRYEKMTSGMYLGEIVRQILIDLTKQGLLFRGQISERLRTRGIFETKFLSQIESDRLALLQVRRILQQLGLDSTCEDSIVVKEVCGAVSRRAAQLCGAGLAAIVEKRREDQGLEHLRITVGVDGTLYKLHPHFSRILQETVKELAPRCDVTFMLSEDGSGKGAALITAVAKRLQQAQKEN

Compound	pEC50
Nn1cnnc1N=NCc1cc(Br)cc(Br)c1O	< 4.10
CC(N=Nc1nc2ccccc2o1)c1cc2ccccc2cn1 (centres undefined)	5.65
CCCOC1=CC(=O)C(C=NNC(=S)Nc2ccccc2[N+](=O)[O-])C=C1 (centres undefined) [1-(2-nitrophenyl)-3-[[(E)-(6-oxo-4-propoxy-1-cyclohexa-2,4-dienylidene)methyl]amino]thiourea]	4.58
COCc1cc(C2C(C(=O)c3ccco3)C(=O)C(=O)N2CCOCCO)ccc1O (centres undefined) [3-(furan-2-carbonyl)-4-hydroxy-1-[2-(2-hydroxyethoxy)ethyl]-2-[4-hydroxy-3-(methoxymethyl)phenyl]-2H-pyrrol-5-one]	< 4.10
CC(C)(C)c1nnc(N=NCc2cc(Br)ccc2O)n(N)c1=O [4-azanyl-3-[2-[(E)-(3-bromanyl-6-oxidanylidene-cyclohexa-2,4-dien-1-ylidene)methyl]hydrazinyl]-6-tert-butyl-1,2,4-triazin-5-one]	4.70
Cc1[nH]n(-c2ccccc2)c(=O)c1CN=Nc1nncc(-c2ccccc2)n1 [(4E)-5-methyl-2-phenyl-4-[[(5-phenyl-1,2,4-triazin-3-yl)hydrazo]methylidene]-3-pyrazolone]	5.17
O=C1C(=C2C(=O)c3ccccc3C2=O)Nc2ccccc21 [MLS000071738]	4.61
Oc1c(Cl)c(N=Cc2cccnc2)c(O)c2ccccc12 [MLS001195521]	5.03
CC(=O)Oc1cccc2c(O)c3c(c(O)c12)CC=CC3OC(C)=O (centres undefined) [SMR001574207]	4.29
